# Measured values: US20210401916A1, “COMPOSITION FOR PREVENTION AND TREATMENT OF MUSCULAR DISEASES OR FOR IMPROVEMENT OF MUSCLE FUNCTION CONTAINING 3,5-DICAFFEOYLQUINIC ACID OR CHRYSANTHEMUM EXTRACT” (Industry-Academic Cooperation Foundation, Yonsei University, priority 2016, published 2021)
# Experiments:
# Format in all cases: cell-based
# PGC-1α = PGC-1α luciferase reporter (pTA-Luc-PGC-1α plasmid) in transfected COS7 cells; conditions: treated at 5, 10, 20, 40 or 60 μg/mL, **p<0.01, FIG. 11
# Method: To confirm an effect of increasing an expression level of PGC-1α by treatment of COS7 cells with a Chrysanthemum extract, COS7 cells (ATCC) were transfected with a pTA-Luc-PGC-1α plasmid (Addgene) by the same method as described in Experimental Example 1-(1). Here, 10%, 30%, 50%, 70% and 90% ethanol extracts of Chrysanthemum, which were prepared in Example 1-(2), and the hot water extract of Chrysanthemum, which was prepared in Example 1-(5), were treated at 10 μg/mL.
# To confirm an effect of increasing an expression level of PGC-1α by treatment of […] (ATCC) with the 95% ethanol extract of Chrysanthemum, the 95% ethanol extract of Chrysanthemum, prepared in Example 1-(2), was treated at 10 or 40 μg/mL by the same method as described in Experimental Example 1-(2).
# (§1) To confirm an effect of increasing an expression level of PGC-1α by treatment of COS7 cells (ATCC) with 3,5-dicaffeoylquinic acid, the 3,5-dicaffeoylquinic acid obtained in Example 2 was treated at 5, 10, 20, 40 or 60 μg/mL by the same method as described in Experimental Example 1-(2), and the result is shown in FIG. 11.
# SIRT1 = SIRT1 luciferase reporter (pTA-Luc-SIRT1 plasmid) in transfected COS7 cells; conditions: treated at 20, 40 or 60 μg/mL (5 to 60 μg/mL tested), **p<0.01, FIG. 10
# Method: To confirm an effect of increasing an expression level of SIRT1 by treatment of COS7 cells (ATCC) with a Chrysanthemum extract, COS7 cells (ATCC) were transfected with a pTA-Luc-SIRT1 plasmid (Addgene) by the same method as described in Experimental Example 1-(1). Here, the 95% ethanol extract of Chrysanthemum prepared in Example 1-(2) was treated at 20, 30 or 40 μg/mL, and the result is shown in FIG. 4.
# as §1, with “SIRT1” for “PGC-1α”, “1-(4),” for “1-(2),”, “10.” for “11.”
# atrogin-1 = atrogin-1 mRNA expression (RT-PCR) in TNF-α-treated L6 myotubes; conditions: 50 ng/mL TNF-α, 1 or 10 μg/mL, 6 hours
# Method: (§2) L6 myoblasts (ATCC), which are muscle cells, were added at 1×10^5 cell/mL to a 6-well plate with 10% FBS (Gibco)-containing DMEM (Hyclone). When the cell density reached approximately 80 to 85%, the medium in the well was removed, the cells were treated with 2% HS (Hyclone)-containing DMEM (Hyclone) to induce myotube differentiation. The differentiation was performed for total of 6 days by replacing the medium and a sample with fresh ones every two days. After differentiation, the 30% ethanol extract of Chrysanthemum prepared in Example 1-(2) was dissolved in DMEM (Hyclone) containing 50 ng/mL tumor necrosis factor alpha (TNF-α; PeproTech, Rocky Hills, N.J., USA) at 1 or 10 μg/mL, and used to treat the cells. After 6 hours, total RNA was isolated with a TRIzol reagent (Takara, Shiga, Japan). The isolated total RNA was quantified using a NanoDrop 1000 (Thermo Fisher Scientific Inc.). cDNA was synthesized from 16 μL of the quantified RNA using a Reverse Transcriptase Premix (ELPIS-Biotech, Daejeon, Korea) and a PCR machine (Gene Amp PCR System 2700; Applied Biosystems, Foster City, Calif., USA) under conditions of 42° C. for 55 minutes and 70° C. for 15 minutes. […]
# MuRF-1 = MuRF-1 mRNA expression (RT-PCR) in TNF-α-treated L6 myotubes; conditions: 50 ng/mL TNF-α, 1 or 10 μg/mL, 6 hours
# Method: as §2
# p-mTOR = p-mTOR protein expression (western blot) in TNF-α-treated L6 myotubes; conditions: 1 or 10 μg/mL, 24 hours
# Method: To confirm the muscle protein expression-increasing activity of a Chrysanthemum extract in L6 myoblasts (ATCC), which are muscle cells, after differentiation by the same method as described in Experimental Example 2, a sample was treated with the 30% ethanol extract of Chrysanthemum prepared in Example 1-(2) at 1 or 10 μg/mL. The samples were treated for 24 hours, and then the cells were dissolved in an NP-40 buffer solution (ELPIS-Biotech) containing a proteinase inhibitor cocktail (Sigma, St. Louis, Mo., USA). The cells dissolved in the buffer solution were transferred to a 1.5 mL tube for centrifugation at 13,000 rpm for 10 minutes, and then only a supernatant was taken. The supernatant obtained previously was quantified by a Bradford method (Bio-Rad Laboratories Inc., Hercules, Calif., USA). The quantified protein was boiled for 5 minutes and isolated by electrophoresis with a 10% SDS-PAGE gel, and then the isolated proteins were transferred to a nitrocellulose membrane. p-mTOR, mTOR, p-4EBP1, 4EBP1, p-P70S6K and P70S6K and an α-tubulin primary antibody were diluted in 2.5% bovine serum albumin (BSA; bioWORLD, Dublin, Ohio, USA) at a ratio of 1:1000, and the proteins which were transferred to a nitrocellulose membrane were reacted at room temperature for 20 hours. […]
# MyoD = MyoD mRNA expression (RT-PCR) during L6 myotube differentiation; conditions: L6 muscle cells, 10, 20 or 40 μg/mL during differentiation, FIG. 14
# Method: (§3) To confirm the muscle differentiation-promoting activity of a Chrysanthemum extract in L6 myoblasts (ATCC), which are muscle cells, the cells were treated with the 30% ethanol extract of Chrysanthemum, prepared in Example 1-(2), at 5, 10 or 20 μg/mL to induced myotube differentiation by the same method as described in Experimental Example 1-(6). RT-PCR was performed with specific primers (Bioneer) by the same method as described in Experimental Example 2, and the result is shown in FIG. 9.
# (§4) To confirm muscle protein synthesis-promoting activity by treatment of L6 myoblasts (ATCC), which are muscle cells, with 3,5-dicaffeoylquinic acid, the cells were treated with the 3,5-dicaffeoylquinic acid obtained in Example 2 at 10, 20 or 40 μg/mL, and then mRNA expression levels of MyoD and myogenin were confirmed by the same method as described in Experimental Example 4.
# myogenin = myogenin mRNA expression (RT-PCR) during L6 myotube differentiation; conditions: L6 muscle cells, 10, 20 or 40 μg/mL during differentiation, FIG. 14
# Method: as §3, §4
structure (smiles),measurement,setting,value
"O=C(/C=C/c1ccc(O)c(O)c1)O[C@@H]1CC(O)(C(=O)O)C[C@@H](OC(=O)/C=C/c2ccc(O)c(O)c2)C1O (stereo partly drawn) [3,5-dicaffeoylquinic acid, (3R,5R)-3,5-bis[[(E)-3-(3,4-dihydroxyphenyl)prop-2-enoyl]oxy]-1,4-dihydroxycyclohexane-1-carboxylic acid]",expression level of PGC-1α,PGC-1α,significantly increased
same,expression level of SIRT1,SIRT1,significantly increased
same,mRNA expression level of atrogin-1 increased by TNF-α,atrogin-1,decreased in a concentration dependent manner
same,mRNA expression level of MuRF-1 increased by TNF-α,MuRF-1,decreased in a concentration dependent manner
same,p-mTOR protein expression level reduced by TNF-α,p-mTOR,increased in a concentration-dependent manner
same,mRNA expression level of MyoD,MyoD,increased in a concentration-dependent manner
same,mRNA expression level of myogenin,myogenin,increased in a concentration-dependent manner
